Test results: ChEMBL document CHEMBL6096723, “Discovery of novel capsaicin analogs as TRPV1 inhibitors for the treatment of idiopathic pulmonary fibrosis” (Eur J Med Chem, 2025)
Calls of active or inactive are those of the source. No cut-off for these calls is given here.

Key:
Mus musculus [1] = assay: Anti-pulmonary fibrotic activity against bleomycin-induced pulmonary fibrosis mouse model assessed as inhibition of alpha-SMA expression in lung tissue at 10 to 20 mg/kg, ip administered every alternative day for 8 to 21 days after modeling by immunohistochemical staining based assay; assay type: functional, organism-based; conditions: dose 10-20 mg/kg, time 8-21 day
Rattus norvegicus [2] = assay: Zeta in Sprague-Dawley rat at 50 mg/kg, ip measured upto 4 hrs by UPLC-MS/MS analysis; assay type: ADME, organism-based; conditions: in vivo
Mus musculus [3] = assay: Anti-pulmonary fibrotic activity against bleomycin-induced pulmonary fibrosis mouse model assessed as reduction in BLM-induced […] expression in lung tissue at 10 to 20 mg/kg, ip administered every alternative day for 8 to 21 days after modeling; assay type: functional, organism-based; conditions: dose 10-20 mg/kg, time 8-21 day
[4] = Cmax in Sprague-Dawley rat at 50 mg/kg, po measured upto 4 hrs by UPLC-MS/MS analysis; assay type: ADME, organism-based; conditions: in vivo
Rattus norvegicus [5] = assay: Zeta in Sprague-Dawley rat at 50 mg/kg, po measured upto 4 hrs by UPLC-MS/MS analysis; assay type: ADME, organism-based; conditions: in vivo
[6] = Acute toxicity in Kunming mouse assessed as organ lesions in lung at 180 mg/kg, ip measured after 14 days by H and E staining based assay; assay type: organism-based; conditions: in vivo, 336 h, time 14 day
NIH3T3 [7] = assay: Antifibrotic activity in mouse NIH3T3 cells assessed as decrease in TGFbeta-induced alpha-SMA expression measured after 48 hrs incubation by Western blotting analysis; assay type: functional, cell-based; conditions: dose 1-10 µM
[8] = Acute toxicity in Kunming male mouse assessed as Total bilirubin (T-Bil) level at 180 mg/kg, ip measured after 14 days (reference value: 12.99 micromol/L); assay type: organism-based; conditions: in vivo, 336 h, time 14 day
[9] = Acute toxicity in Kunming male mouse assessed as Urea level at 180 mg/kg, ip measured after 14 days (reference value: 6.54 mmol/L); assay type: organism-based; conditions: in vivo, 336 h, time 14 day
Mus musculus [10] = assay: Anti-pulmonary fibrotic activity against bleomycin induced pulmonary fibrosis mouse model assessed as reduction in alveolar structure at 10 to 20 mg/kg, ip administered every alternative day for 8 to 21 days after modeling; assay type: functional, organism-based; conditions: dose 10-20 mg/kg, time 8-21 day
[11] = MRT(0 to t) in Sprague-Dawley rat at 50 mg/kg, ip measured upto 4 hrs by UPLC-MS/MS analysis; assay type: ADME, organism-based; conditions: in vivo
[12] = Acute toxicity in Kunming male mouse assessed as Creatine kinase (CK) level at 180 mg/kg, ip measured after 14 days (reference value: 710.6 U/L); assay type: organism-based; conditions: in vivo, 336 h, time 14 day
[13] = Acute toxicity in Kunming female mouse assessed as Creatinine (CREA) level at 180 mg/kg, ip measured after 14 days (reference value: 15.4 micromol/L); assay type: organism-based; conditions: in vivo, 336 h, time 14 day
[14] = Half life in Sprague-Dawley rat at 50 mg/kg, iv measured upto 4 hrs by UPLC-MS/MS analysis; assay type: ADME, organism-based; conditions: in vivo
[15] = Acute toxicity in Kunming female mouse assessed as Creatine kinase (CK) level at 180 mg/kg, ip measured after 14 days (reference value: 779.7 U/L); assay type: organism-based; conditions: in vivo, 336 h, time 14 day
NIH3T3 [16] = assay: Antifibrotic activity in mouse NIH3T3 cells assessed as decrease in TGFbeta-induced Collagen type 1 expression measured after 48 hrs incubation by Western blotting analysis; assay type: functional, cell-based; conditions: dose 1-10 µM
Mus musculus [17] = assay: Anti-pulmonary fibrotic activity against bleomycin-induced pulmonary fibrosis mouse model assessed as inhibition of collagen I expression in lung tissue at 10 to 20 mg/kg, ip administered every alternative day for 8 to 21 days after modeling by immunohistochemical staining based assay; assay type: functional, organism-based; conditions: dose 10-20 mg/kg, time 8-21 day
[18] = AUMC(0 to t) in Sprague-Dawley rat at 50 mg/kg, po measured upto 4 hrs by UPLC-MS/MS analysis; assay type: ADME, organism-based; conditions: in vivo
L929 = assay: Anti-migratory activity in mouse L929 cells assessed as inhibition of TGFbeta1-induced migration at 10 uM measured after 24 hrs by Wound healing assay; assay type: functional, cell-based
[19] = Cmax in Sprague-Dawley rat at 50 mg/kg, ip measured upto 4 hrs by UPLC-MS/MS analysis; assay type: ADME, organism-based; conditions: in vivo
Rattus norvegicus [20] = assay: Cz in Sprague-Dawley rat at 50 mg/kg, po measured upto 4 hrs by UPLC-MS/MS analysis; assay type: ADME, organism-based; conditions: in vivo
[21] = Clearance in Sprague-Dawley rat at 50 mg/kg, ip measured upto 4 hrs by UPLC-MS/MS analysis; assay type: ADME, organism-based; conditions: in vivo
[22] = MRT(0 to infinity) in Sprague-Dawley rat at 50 mg/kg, ip measured upto 4 hrs by UPLC-MS/MS analysis; assay type: ADME, organism-based; conditions: in vivo
NIH3T3 [23] = assay: Anti-fibrotic activity in mouse NIH3T3 cells assessed as inhibition of TGFbeta-induced total collagen production at 10 uM measured after 48 hrs by Sirius Red Collagen Detection Kit relative to control; assay type: functional
[24] = AUMC(0 to t) in Sprague-Dawley rat at 50 mg/kg, ip measured upto 4 hrs by UPLC-MS/MS analysis; assay type: ADME, organism-based; conditions: in vivo
[25] = VRT(0 to infinity) in Sprague-Dawley rat at 50 mg/kg, ip measured upto 4 hrs by UPLC-MS/MS analysis; assay type: ADME, organism-based; conditions: in vivo
[26] = AUC(0 to t) in Sprague-Dawley rat at 50 mg/kg, iv measured upto 4 hrs by UPLC-MS/MS analysis; assay type: ADME, organism-based; conditions: in vivo
[27] = Bioavailability in Sprague-Dawley rat at 50 mg/kg, ip measured upto 4 hrs by UPLC-MS/MS analysis; assay type: ADME, organism-based; conditions: in vivo
Mus musculus [28] = assay: Anti-pulmonary fibrotic activity against bleomycin-induced pulmonary fibrosis mouse model assessed as inhibition of Smad3 phosphorylation in lung tissue at 10 to 20 mg/kg, ip administered every alternative day for 8 to 21 days after modeling by immunohistochemical staining based assay; assay type: functional, organism-based; conditions: dose 10-20 mg/kg, time 8-21 day
Rattus norvegicus [29] = assay: Zeta in Sprague-Dawley rat at 50 mg/kg, iv measured upto 4 hrs by UPLC-MS/MS analysis; assay type: ADME, organism-based; conditions: in vivo
[30] = Tmax in Sprague-Dawley rat at 50 mg/kg, po measured upto 4 hrs by UPLC-MS/MS analysis; assay type: ADME, organism-based; conditions: in vivo
NIH3T3 [31] = assay: Anti-fibrotic activity in mouse NIH3T3 cells assessed as inhibition of TGFbeta-induced total collagen production measured after 48 hrs by Sirius Red Collagen Detection Kit relative to control; assay type: functional, cell-based; conditions: NIH3T3, 48 h
Mus musculus [32] = assay: Anti-fibrotic activity against bleomycin-induced pulmonary fibrosis mouse model assessed as decrease in hydroxyproline level in lung tissue at 10 to 20 mg/kg, ip administered every alternative day for 8 to 21 days after modeling […]; assay type: functional, organism-based; conditions: dose 10-20 mg/kg, time 8-21 day
[33] = Acute toxicity in Kunming male mouse assessed as Creatinine (CREA) level at 180 mg/kg, ip measured after 14 days (reference value: 12.4 micromol/L); assay type: organism-based; conditions: in vivo, 336 h, time 14 day
[34] = Apparent volume of distribution in Sprague-Dawley rat at 50 mg/kg, iv measured upto 4 hrs by UPLC-MS/MS analysis; assay type: ADME, organism-based; conditions: in vivo, read-out: Vz
[35] = Acute toxicity in Kunming male mouse assessed as Lactate dehydrogenase (LDH) level at 180 mg/kg, ip measured after 14 days (reference value: 1776.1 U/L); assay type: organism-based; conditions: in vivo, 336 h, time 14 day
[36] = Acute toxicity in Kunming mouse assessed as organ lesions in liver at 180 mg/kg, ip measured after 14 days by H and E staining based assay; assay type: organism-based; conditions: in vivo, 336 h, time 14 day
[37] = MRT(0 to t) in Sprague-Dawley rat at 50 mg/kg, iv measured upto 4 hrs by UPLC-MS/MS analysis; assay type: ADME, organism-based; conditions: in vivo

SMILES: O=C(/C=C/c1ccc(O)c(O)c1)CCCCc1ccccc1
- Activity (Mus musculus [1]): Active
- Activity (Rattus norvegicus [2]): 1.98
- Activity (Mus musculus [3]): Active
- Cmax [4]: 48.9 ng/mL
- Activity (Rattus norvegicus [5]): 0.84
- Activity [6]: Non-toxic
- Activity (NIH3T3 [7]): Dose-dependent-effect; Compound More Potent Than Nintedanib
- Activity [8]: 10.43 µmol/L
- Activity [9]: 9.56 mmol/L
- Activity (Mus musculus [10]): Active
- MRT last at 4 h [11]: 31.2 min
- Activity [12]: 710.6 U/L
- Activity [13]: 16.7 µmol/L
- half-life [14]: 39.4 min
- Activity [15]: 1115.7 U/L
- Activity (NIH3T3 [16]): Dose-dependent-effect; Compound More Potent Than Nintedanib
- Activity (Mus musculus [17]): Active
- AUMCt [18]: 121.11 ug/L.hr
- Activity (L929): Active
- Cmax [19]: 1490 ng/mL
- Cz (Rattus norvegicus [20]): 2.54 µg/L
- CL [21]: 305.45 mL/min/kg
- MRT inf [22]: 34.2 min
- inhibition at 10 µM (NIH3T3 [23]): 80.7%
- AUMCt [24]: 568.11 ug/L.hr
- VRT [25]: 0.72 hr2
- AUC(0-t) at 4 h [26]: 2640 ng·h/mL
- bioavailability [27]: 29.6%
- Activity (Mus musculus [28]): Active
- Activity (Rattus norvegicus [29]): 1.07
- Tmax [30]: 10.2 min
- IC50 (NIH3T3 [31]): 510 nM
- Activity (Mus musculus [32]): Active
- Activity [33]: 15.3 µmol/L
- Vd [34]: 7.17 L/kg
- Activity [35]: 2486.8 U/L
- Activity [36]: Non-toxic
- MRT last at 4 h [37]: 44.6 min
